Measured values reported in patent US11872262B2, “Means and methods for treating bacterial infections” (VIB VZW, priority 2017, dated 2024).
Residues, ends and D or L forms follow the SMILES beside them.

test system: E. coli O157:H7; assay type: cell-based, Escherichia coli; details: screening-stage peptides tested at 1, 6, 12 and 25 μg/mL
Text: In the present invention we used the statistical thermodynamics algorithm TANGO to identify aggregation prone regions (APR) in the proteome of E. coli strain O157:H7. This yielded 3535 sequences of at least 6 amino acids in length and a TANGO score of at least 20%. In order to generate efficient aggregation seeds, we employed a previously devised tandem repeat design ^19, 21, in which the APRs are repeated once and separated by a linker. Given the length limitation on solid phase peptide synthesis with regard to yield and purity, we focused on the 1542 APRs with a length of 7 amino acids. In order to maximize the potential of these peptides to induce aggregation in E. coli, we ranked the APRs by their frequency of occurrence throughout the E. coli proteome, allowing a single amino acid mismatch, and selected the first 75 most frequently occurring sequences from this list (Table 4). In the design pattern, and in order to increase the colloidal stability of these aggregating peptides, the APRs are flanked by aggregation gatekeepers, a class of residues that was previously shown to reduce aggregation kinetics^22-24. […] To generate the tandem we used a single proline residue as a linker between the gatekeeper-flanked APRs. In addition to the 75 peptides generated in this fashion, we added 2 variants of each of the first 25 peptides in the list by randomly mutating one residue in the first APR repeat to arginine to further modulate the aggregation propensity of the peptides (Table 4). All the peptides were generated using solid phase synthesis at 200 nmole scale and dissolved in DMSO to a theoretical stock concentration of 2 mM (assuming 100% synthesis efficiency). Peptide activity on the growth of E. coli O157:H7 was measured at dilutions of the peptide corresponding to concentrations of 1, 6, 12 and 25 μg/mL. […] The Matthews Correlations Coefficient (MCC) with the measured activity was 0.1 at 12 μg/mL and 0.24 at 25 μg/mL.

`CC(C)C[C@H](NC(=O)[C@H](C)NC(=O)[C@H](CC(C)C)NC(=O)[C@@H](NC(=O)[C@H](CCC(N)=O)NC(=O)[C@H](C)NC(=O)[C@H](CCCNC(=N)N)NC(=O)[C@@H]1CCCN1C(=O)[C@H](CCCNC(=N)N)NC(=O)[C@H](CCCNC(=N)N)NC(=O)[C@H](CC(C)C)NC(=O)[C@H](CC(C)C)NC(=O)[C@H](C)NC(=O)[C@H](CC(C)C)NC(=O)[C@@H](NC(=O)[C@H](CCC(N)=O)NC(=O)[C@H](C)NC(=O)[C@@H](N)CCCNC(=N)N)C(C)C)C(C)C)C(=O)N[C@@H](CC(C)C)C(=O)N[C@@H](CCCNC(=N)N)C(=O)N[C@@H](CCCNC(=N)N)C(=O)O` [Peptide P40] (H-RAQVLALLRRPRAQVLALLRR-OH; N-terminus and C-terminus assumed) and `CC(C)C[C@H](NC(=O)[C@H](C)NC(=O)[C@H](CCCNC(=N)N)NC(=O)[C@@H]1CCCN1C(=O)[C@H](CCCNC(=N)N)NC(=O)[C@H](CCCNC(=N)N)NC(=O)[C@H](CC(C)C)NC(=O)[C@H](CC(C)C)NC(=O)[C@H](C)NC(=O)[C@@H](NC(=O)[C@H](CCCNC(=N)N)NC(=O)[C@H](CC(C)C)NC(=O)[C@H](C)NC(=O)[C@@H](N)CCCNC(=N)N)C(C)C)C(=O)N[C@@H](C)C(=O)N[C@H](C(=O)N[C@@H](C)C(=O)N[C@@H](CC(C)C)C(=O)N[C@@H](CC(C)C)C(=O)N[C@@H](CCCNC(=N)N)C(=O)N[C@@H](CCCNC(=N)N)C(=O)O)C(C)C` [Peptide P87] (H-RALRVALLRRPRALAVALLRR-OH; N-terminus and C-terminus assumed) are the same in “E. coli O157 (apparent MIC in screen)” value: 25 µg/mL for the first, 25 µg/mL for the second.

Compared with `CC(C)C[C@H](NC(=O)[C@H](CC(N)=O)NC(=O)[C@H](CC(C)C)NC(=O)[C@H](CC(C)C)NC(=O)[C@@H](NC(=O)[C@H](CC(C)C)NC(=O)[C@H](CC(C)C)NC(=O)[C@H](CCCNC(=N)N)NC(=O)[C@@H]1CCCN1C(=O)[C@H](CCCNC(=N)N)NC(=O)[C@H](CCCNC(=N)N)NC(=O)[C@H](CC(C)C)NC(=O)[C@H](CC(N)=O)NC(=O)[C@H](CC(C)C)NC(=O)[C@H](CC(C)C)NC(=O)[C@@H](NC(=O)[C@H](CC(C)C)NC(=O)[C@H](CC(C)C)NC(=O)[C@@H](N)CCCNC(=N)N)[C@@H](C)O)[C@@H](C)O)C(=O)N[C@@H](CCCNC(=N)N)C(=O)N[C@@H](CCCNC(=N)N)C(=O)O` [Peptide P49] (H-RLLTLLNLRRPRLLTLLNLRR-OH; N-terminus and C-terminus assumed), `CC(C)C[C@H](NC(=O)[C@H](CCC(N)=O)NC(=O)[C@H](CCCNC(=N)N)NC(=O)[C@@H]1CCCN1C(=O)[C@H](CCCNC(=N)N)NC(=O)[C@H](CCCNC(=N)N)NC(=O)[C@H](CC(C)C)NC(=O)[C@H](CC(C)C)NC(=O)[C@@H](NC(=O)[C@H](CC(C)C)NC(=O)[C@H](CC(C)C)NC(=O)[C@H](CC(C)C)NC(=O)[C@H](CCC(N)=O)NC(=O)[C@@H](N)CCCNC(=N)N)[C@@H](C)O)C(=O)N[C@@H](CC(C)C)C(=O)N[C@@H](CC(C)C)C(=O)N[C@H](C(=O)N[C@@H](CC(C)C)C(=O)N[C@@H](CC(C)C)C(=O)N[C@@H](CCCNC(=N)N)C(=O)N[C@@H](CCCNC(=N)N)C(=O)O)[C@@H](C)O` [Peptide P72] (H-RQLLLTLLRRPRQLLLTLLRR-OH; N-terminus and C-terminus assumed) is 2.1-fold higher in “E. coli O157 (apparent MIC in screen)” value: 12 µg/mL for the first, 25 µg/mL for the second.

Going from `CC(C)C[C@H](NC(=O)CNC(=O)[C@@H](NC(=O)[C@H](CC(C)C)NC(=O)[C@H](CCCNC(=N)N)NC(=O)[C@@H]1CCCN1C(=O)[C@H](CCCNC(=N)N)NC(=O)[C@H](CCCNC(=N)N)NC(=O)CNC(=O)[C@H](CC(C)C)NC(=O)[C@@H](NC(=O)[C@H](CC(C)C)NC(=O)CNC(=O)[C@@H](NC(=O)[C@H](CC(C)C)NC(=O)[C@@H](N)CCCNC(=N)N)C(C)C)C(C)C)C(C)C)C(=O)N[C@H](C(=O)N[C@@H](CC(C)C)C(=O)NCC(=O)N[C@@H](CCCNC(=N)N)C(=O)N[C@@H](CCCNC(=N)N)C(=O)O)C(C)C` [Peptide P50] (H-RLVGLVLGRRPRLVGLVLGRR-OH; N-terminus and C-terminus assumed) to `CC(C)C[C@H](NC(=O)[C@H](C)NC(=O)[C@H](CCCNC(=N)N)NC(=O)[C@@H]1CCCN1C(=O)[C@H](CCCNC(=N)N)NC(=O)[C@H](CCCNC(=N)N)NC(=O)[C@H](CC(C)C)NC(=O)[C@H](CC(C)C)NC(=O)[C@H](CC(C)C)NC(=O)[C@H](CO)NC(=O)[C@@H](NC(=O)[C@H](CC(C)C)NC(=O)[C@H](C)NC(=O)[C@@H](N)CCCNC(=N)N)C(C)C)C(=O)N[C@H](C(=O)N[C@@H](CO)C(=O)N[C@@H](CC(C)C)C(=O)N[C@@H](CC(C)C)C(=O)N[C@@H](CC(C)C)C(=O)N[C@@H](CCCNC(=N)N)C(=O)N[C@@H](CCCNC(=N)N)C(=O)O)C(C)C` [Peptide P58] (H-RALVSLLLRRPRALVSLLLRR-OH; N-terminus and C-terminus assumed), the “E. coli O157 (apparent MIC in screen)” value rises from 6 µg/mL to 12 µg/mL (2-fold).

`CC(C)C[C@H](NC(=O)[C@H](CC(C)C)NC(=O)[C@H](CC(C)C)NC(=O)[C@H](CCCNC(=N)N)NC(=O)[C@@H]1CCCN1C(=O)[C@H](CCCNC(=N)N)NC(=O)[C@H](CCCNC(=N)N)NC(=O)[C@@H](NC(=O)[C@H](CC(C)C)NC(=O)[C@H](CC(C)C)NC(=O)[C@H](CO)NC(=O)[C@H](CC(C)C)NC(=O)[C@H](CCCNC(=N)N)NC(=O)[C@H](CC(C)C)NC(=O)[C@@H](N)CCCNC(=N)N)C(C)C)C(=O)N[C@@H](CO)C(=O)N[C@@H](CC(C)C)C(=O)N[C@@H](CC(C)C)C(=O)N[C@H](C(=O)N[C@@H](CCCNC(=N)N)C(=O)N[C@@H](CCCNC(=N)N)C(=O)O)C(C)C` [Peptide P76] (H-RLRLSLLVRRPRLLLSLLVRR-OH; N-terminus and C-terminus assumed) and `CC(C)C[C@H](NC(=O)[C@H](C)NC(=O)[C@H](CC(C)C)NC(=O)[C@H](CCCNC(=N)N)NC(=O)[C@@H]1CCCN1C(=O)[C@H](CCCNC(=N)N)NC(=O)[C@H](CCCNC(=N)N)NC(=O)[C@H](CC(C)C)NC(=O)[C@H](CC(C)C)NC(=O)[C@H](CC(C)C)NC(=O)[C@H](CCCNC(=N)N)NC(=O)[C@H](CC(C)C)NC(=O)[C@H](C)NC(=O)[C@H](CC(C)C)NC(=O)[C@@H](N)CCCNC(=N)N)C(=O)N[C@@H](C)C(=O)N[C@@H](CC(C)C)C(=O)N[C@@H](CC(C)C)C(=O)N[C@@H](CC(C)C)C(=O)N[C@@H](CCCNC(=N)N)C(=O)N[C@@H](CCCNC(=N)N)C(=O)O` [Peptide P79] (H-RLALRLLLRRPRLALALLLRR-OH; N-terminus and C-terminus assumed) are the same in “E. coli O157 (apparent MIC in screen)” value: 12 µg/mL for the first, 12 µg/mL for the second.

For `CC(C)C[C@H](NC(=O)[C@H](C)NC(=O)[C@H](CCCNC(=N)N)NC(=O)[C@@H]1CCCN1C(=O)[C@H](CCCNC(=N)N)NC(=O)[C@H](CCCNC(=N)N)NC(=O)[C@H](CC(C)C)NC(=O)[C@H](CC(C)C)NC(=O)[C@@H](NC(=O)[C@@H](NC(=O)[C@H](CCCNC(=N)N)NC(=O)[C@H](CC(C)C)NC(=O)[C@H](C)NC(=O)[C@@H](N)CCCNC(=N)N)[C@@H](C)O)[C@@H](C)O)C(=O)N[C@@H](CC(C)C)C(=O)N[C@H](C(=O)N[C@H](C(=O)N[C@@H](CC(C)C)C(=O)N[C@@H](CC(C)C)C(=O)N[C@@H](CCCNC(=N)N)C(=O)N[C@@H](CCCNC(=N)N)C(=O)O)[C@@H](C)O)[C@@H](C)O` [Peptide P80] (H-RALRTTLLRRPRALLTTLLRR-OH; N-terminus and C-terminus assumed), the “E. coli O157 (apparent MIC in screen)” value was 25 µg/mL.
